Experiments:
[1] = molecular target: Ribosomal protein S6 kinase alpha-2 (Homo sapiens) (UniProt Q15349); conditions: Compound concentration 1000.0 nM
[2] = molecular target: Serine/threonine-protein kinase NIM1 (Homo sapiens) (UniProt Q8IY84); conditions: Compound concentration 1000.0 nM
[3] = molecular target: Activin receptor type-2B (Homo sapiens) (UniProt Q13705); conditions: Compound concentration 1000.0 nM
[4] = molecular target: 5-hydroxytryptamine receptor 1D (Homo sapiens) (UniProt P28221); conditions: Compound concentration 10.0 uM
[5] = molecular target: T1, MAP kinase-activated protein kinase 5 (Homo sapiens) (UniProt Q8IW41); conditions: Compound concentration 1000.0 nM
T1 sequence (whole entry): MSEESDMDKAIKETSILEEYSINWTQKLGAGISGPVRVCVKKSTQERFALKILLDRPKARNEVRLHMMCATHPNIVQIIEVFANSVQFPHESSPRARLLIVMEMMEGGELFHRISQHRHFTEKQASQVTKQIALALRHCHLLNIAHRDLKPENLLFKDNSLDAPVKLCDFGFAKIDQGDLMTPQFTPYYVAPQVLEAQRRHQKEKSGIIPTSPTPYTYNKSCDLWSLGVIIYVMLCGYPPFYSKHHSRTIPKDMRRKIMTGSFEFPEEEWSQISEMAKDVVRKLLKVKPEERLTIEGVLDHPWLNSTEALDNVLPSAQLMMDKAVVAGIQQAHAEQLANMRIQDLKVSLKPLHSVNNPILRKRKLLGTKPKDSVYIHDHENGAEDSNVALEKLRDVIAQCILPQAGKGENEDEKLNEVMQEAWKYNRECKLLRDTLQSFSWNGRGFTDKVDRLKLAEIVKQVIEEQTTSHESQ

[6] = molecular target: Serine/threonine-protein kinase Chk2 (Homo sapiens) (UniProt O96017); conditions: Compound concentration 1000.0 nM
Serine/threonine-protein kinase Chk2 (Homo sapiens), sequence (O96017 whole entry): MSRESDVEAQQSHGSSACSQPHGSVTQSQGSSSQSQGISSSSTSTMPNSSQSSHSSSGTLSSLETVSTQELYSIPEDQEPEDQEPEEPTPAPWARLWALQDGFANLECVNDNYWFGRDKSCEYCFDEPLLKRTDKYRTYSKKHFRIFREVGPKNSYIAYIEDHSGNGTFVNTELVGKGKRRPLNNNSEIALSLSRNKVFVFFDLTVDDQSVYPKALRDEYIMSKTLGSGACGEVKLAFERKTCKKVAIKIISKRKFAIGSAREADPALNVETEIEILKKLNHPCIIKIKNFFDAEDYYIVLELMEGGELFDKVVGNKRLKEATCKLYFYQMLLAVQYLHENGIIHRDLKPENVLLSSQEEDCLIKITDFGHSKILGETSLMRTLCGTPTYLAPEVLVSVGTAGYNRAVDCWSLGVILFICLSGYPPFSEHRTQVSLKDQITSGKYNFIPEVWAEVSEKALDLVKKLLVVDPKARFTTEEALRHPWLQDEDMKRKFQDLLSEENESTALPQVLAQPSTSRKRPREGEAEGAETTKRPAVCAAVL

[7] = molecular target: T2, Serine/threonine-protein kinase TAO2 (Homo sapiens) (UniProt Q9UL54); conditions: Compound concentration 1000.0 nM
T2 sequence (whole entry): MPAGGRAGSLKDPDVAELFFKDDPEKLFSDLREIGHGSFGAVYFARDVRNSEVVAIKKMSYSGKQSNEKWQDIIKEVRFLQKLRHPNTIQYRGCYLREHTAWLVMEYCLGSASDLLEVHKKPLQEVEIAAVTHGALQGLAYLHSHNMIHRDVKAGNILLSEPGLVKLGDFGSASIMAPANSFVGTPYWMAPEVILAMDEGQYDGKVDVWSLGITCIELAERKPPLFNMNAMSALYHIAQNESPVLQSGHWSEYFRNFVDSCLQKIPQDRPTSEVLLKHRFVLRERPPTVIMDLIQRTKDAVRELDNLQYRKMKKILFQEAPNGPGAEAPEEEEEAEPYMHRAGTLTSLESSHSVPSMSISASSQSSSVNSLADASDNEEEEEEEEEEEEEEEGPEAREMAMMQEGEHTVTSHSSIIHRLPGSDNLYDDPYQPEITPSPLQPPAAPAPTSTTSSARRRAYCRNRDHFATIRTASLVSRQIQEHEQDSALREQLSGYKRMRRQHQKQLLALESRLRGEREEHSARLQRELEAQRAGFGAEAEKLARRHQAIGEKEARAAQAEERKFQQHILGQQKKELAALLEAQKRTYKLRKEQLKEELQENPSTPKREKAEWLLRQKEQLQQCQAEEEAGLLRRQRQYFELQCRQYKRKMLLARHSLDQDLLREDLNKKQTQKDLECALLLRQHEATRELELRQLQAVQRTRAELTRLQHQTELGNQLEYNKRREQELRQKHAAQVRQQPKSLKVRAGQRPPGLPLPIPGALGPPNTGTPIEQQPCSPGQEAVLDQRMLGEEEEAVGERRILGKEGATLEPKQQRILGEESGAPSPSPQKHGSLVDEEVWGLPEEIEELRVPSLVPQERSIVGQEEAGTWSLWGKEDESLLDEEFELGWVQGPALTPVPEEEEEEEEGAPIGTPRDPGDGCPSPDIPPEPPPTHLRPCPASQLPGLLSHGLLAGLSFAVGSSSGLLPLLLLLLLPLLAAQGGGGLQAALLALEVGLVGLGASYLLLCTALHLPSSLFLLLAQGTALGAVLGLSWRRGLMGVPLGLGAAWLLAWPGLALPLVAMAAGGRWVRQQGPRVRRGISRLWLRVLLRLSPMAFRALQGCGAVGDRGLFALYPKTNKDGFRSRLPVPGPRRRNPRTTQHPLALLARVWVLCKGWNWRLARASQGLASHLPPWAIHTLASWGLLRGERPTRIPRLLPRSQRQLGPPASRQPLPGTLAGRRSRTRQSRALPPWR

[8] = tested on: Proto-oncogene tyrosine-protein kinase receptor Ret (Homo sapiens), P07949 [V804L]; conditions: Compound concentration 1000.0 nM
[9] = molecular target: T3, Testis-specific serine/threonine-protein kinase 3 (Homo sapiens) (UniProt Q96PN8); conditions: Compound concentration 1000.0 nM
T3 sequence (whole entry): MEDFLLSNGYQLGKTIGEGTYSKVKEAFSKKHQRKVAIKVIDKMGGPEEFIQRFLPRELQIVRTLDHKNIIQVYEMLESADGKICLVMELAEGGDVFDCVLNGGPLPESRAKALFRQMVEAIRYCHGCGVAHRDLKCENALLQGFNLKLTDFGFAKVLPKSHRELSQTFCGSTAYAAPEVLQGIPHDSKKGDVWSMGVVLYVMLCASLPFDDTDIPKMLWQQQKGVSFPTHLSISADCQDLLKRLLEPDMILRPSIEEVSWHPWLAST

[10] = tested on: Epidermal growth factor receptor (Homo sapiens), P00533 [L858R,T790M]; conditions: Compound concentration 1000.0 nM
[11] = molecular target: Calcium/calmodulin-dependent protein kinase kinase 1 (Homo sapiens) (UniProt Q8N5S9); conditions: Compound concentration 1000.0 nM
Calcium/calmodulin-dependent protein kinase kinase 1 (Homo sapiens), sequence (Q8N5S9 whole entry, looked up): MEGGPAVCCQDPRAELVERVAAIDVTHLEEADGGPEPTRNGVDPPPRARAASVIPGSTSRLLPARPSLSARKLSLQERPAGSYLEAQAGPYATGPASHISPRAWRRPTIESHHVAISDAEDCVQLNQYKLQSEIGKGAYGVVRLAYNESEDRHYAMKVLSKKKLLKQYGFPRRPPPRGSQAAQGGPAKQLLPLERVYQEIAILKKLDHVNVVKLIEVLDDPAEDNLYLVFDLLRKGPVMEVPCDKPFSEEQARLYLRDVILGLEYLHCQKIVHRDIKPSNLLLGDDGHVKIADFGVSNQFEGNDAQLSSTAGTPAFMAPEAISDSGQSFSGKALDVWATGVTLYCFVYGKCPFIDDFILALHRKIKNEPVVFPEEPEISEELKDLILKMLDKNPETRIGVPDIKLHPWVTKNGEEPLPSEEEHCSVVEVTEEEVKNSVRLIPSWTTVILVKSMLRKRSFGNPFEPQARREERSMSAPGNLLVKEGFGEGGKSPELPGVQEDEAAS

[12] = molecular target: Uncharacterized serine/threonine-protein kinase SBK3 (Homo sapiens) (UniProt P0C264); conditions: Compound concentration 1000.0 nM
Uncharacterized serine/threonine-protein kinase SBK3 (Homo sapiens), sequence (P0C264 whole entry): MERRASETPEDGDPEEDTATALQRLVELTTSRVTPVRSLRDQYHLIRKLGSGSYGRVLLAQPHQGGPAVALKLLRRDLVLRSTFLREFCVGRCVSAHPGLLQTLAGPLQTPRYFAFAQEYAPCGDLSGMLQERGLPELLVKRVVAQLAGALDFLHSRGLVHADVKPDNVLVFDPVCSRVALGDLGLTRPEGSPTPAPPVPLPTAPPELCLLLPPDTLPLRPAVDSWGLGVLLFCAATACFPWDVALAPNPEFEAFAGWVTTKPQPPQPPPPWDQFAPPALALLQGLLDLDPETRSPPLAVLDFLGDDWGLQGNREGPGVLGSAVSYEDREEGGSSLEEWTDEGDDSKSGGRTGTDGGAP

[13] = molecular target: Non-receptor tyrosine-protein kinase TYK2 (Homo sapiens) (UniProt P29597); conditions: Compound concentration 1000.0 nM
Non-receptor tyrosine-protein kinase TYK2 (Homo sapiens), sequence (P29597 whole entry): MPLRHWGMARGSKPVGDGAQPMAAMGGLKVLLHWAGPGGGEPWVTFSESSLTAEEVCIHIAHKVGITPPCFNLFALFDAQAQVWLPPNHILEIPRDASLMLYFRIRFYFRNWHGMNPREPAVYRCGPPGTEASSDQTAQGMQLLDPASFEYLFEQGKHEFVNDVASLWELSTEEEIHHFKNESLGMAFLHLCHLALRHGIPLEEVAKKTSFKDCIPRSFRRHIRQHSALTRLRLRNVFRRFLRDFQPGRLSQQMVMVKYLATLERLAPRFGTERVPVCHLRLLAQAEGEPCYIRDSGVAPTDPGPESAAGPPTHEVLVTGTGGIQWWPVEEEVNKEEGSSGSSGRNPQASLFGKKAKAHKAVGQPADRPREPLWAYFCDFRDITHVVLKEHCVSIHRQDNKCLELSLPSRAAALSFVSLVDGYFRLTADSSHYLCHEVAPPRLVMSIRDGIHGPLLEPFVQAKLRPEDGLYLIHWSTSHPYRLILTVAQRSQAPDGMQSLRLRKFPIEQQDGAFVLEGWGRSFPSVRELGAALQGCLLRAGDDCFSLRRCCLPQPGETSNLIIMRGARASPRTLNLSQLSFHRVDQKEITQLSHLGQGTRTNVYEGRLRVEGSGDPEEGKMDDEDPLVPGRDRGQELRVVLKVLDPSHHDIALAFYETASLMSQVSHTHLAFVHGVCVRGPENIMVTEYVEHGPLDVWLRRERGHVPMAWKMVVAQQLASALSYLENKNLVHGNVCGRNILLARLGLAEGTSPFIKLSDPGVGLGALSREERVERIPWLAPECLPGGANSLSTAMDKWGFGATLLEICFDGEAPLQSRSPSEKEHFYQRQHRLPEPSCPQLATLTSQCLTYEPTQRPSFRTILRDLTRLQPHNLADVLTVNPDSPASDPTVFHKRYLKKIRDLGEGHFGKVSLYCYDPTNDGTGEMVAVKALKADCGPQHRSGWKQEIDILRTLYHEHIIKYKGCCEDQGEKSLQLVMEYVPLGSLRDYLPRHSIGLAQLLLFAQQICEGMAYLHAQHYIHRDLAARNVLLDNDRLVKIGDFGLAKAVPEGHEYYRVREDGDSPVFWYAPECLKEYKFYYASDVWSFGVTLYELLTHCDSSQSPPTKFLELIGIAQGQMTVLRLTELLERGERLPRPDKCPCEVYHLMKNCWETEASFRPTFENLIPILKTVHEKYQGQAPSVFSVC

[14] = molecular target: Tyrosine-protein kinase ABL2 (Homo sapiens) (UniProt P42684); conditions: Compound concentration 1000.0 nM
Tyrosine-protein kinase ABL2 (Homo sapiens), sequence (P42684 whole entry): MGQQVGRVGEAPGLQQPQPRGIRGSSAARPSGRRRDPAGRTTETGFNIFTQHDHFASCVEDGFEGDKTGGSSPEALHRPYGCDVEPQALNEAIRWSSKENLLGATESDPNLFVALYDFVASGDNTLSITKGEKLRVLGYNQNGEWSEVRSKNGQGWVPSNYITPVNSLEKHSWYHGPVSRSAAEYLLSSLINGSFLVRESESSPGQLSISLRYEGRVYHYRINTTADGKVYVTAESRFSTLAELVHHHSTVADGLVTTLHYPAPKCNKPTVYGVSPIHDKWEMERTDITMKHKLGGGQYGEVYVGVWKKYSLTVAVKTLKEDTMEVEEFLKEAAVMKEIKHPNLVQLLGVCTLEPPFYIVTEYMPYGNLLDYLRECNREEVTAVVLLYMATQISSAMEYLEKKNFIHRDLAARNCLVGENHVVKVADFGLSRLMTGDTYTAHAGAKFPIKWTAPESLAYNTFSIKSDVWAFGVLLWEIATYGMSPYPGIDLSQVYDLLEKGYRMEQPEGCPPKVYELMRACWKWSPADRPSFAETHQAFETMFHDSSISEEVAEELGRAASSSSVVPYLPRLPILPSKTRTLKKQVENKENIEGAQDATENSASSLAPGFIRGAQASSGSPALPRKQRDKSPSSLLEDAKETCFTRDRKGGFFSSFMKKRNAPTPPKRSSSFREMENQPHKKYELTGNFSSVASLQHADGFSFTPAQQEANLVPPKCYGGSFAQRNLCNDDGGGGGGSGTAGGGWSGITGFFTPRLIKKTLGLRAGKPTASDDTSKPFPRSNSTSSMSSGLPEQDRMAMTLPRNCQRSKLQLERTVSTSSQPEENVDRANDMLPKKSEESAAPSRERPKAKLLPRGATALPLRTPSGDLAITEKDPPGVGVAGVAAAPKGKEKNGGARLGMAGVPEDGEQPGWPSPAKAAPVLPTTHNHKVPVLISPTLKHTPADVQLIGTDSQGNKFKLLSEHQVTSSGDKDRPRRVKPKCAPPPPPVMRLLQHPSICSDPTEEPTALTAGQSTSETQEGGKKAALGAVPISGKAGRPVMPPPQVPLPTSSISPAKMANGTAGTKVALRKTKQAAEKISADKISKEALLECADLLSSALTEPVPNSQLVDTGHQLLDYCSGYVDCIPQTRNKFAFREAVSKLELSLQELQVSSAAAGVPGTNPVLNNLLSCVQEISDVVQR

[15] = molecular target: Mitogen-activated protein kinase 4 (Homo sapiens) (UniProt P31152); conditions: Compound concentration 1000.0 nM
Mitogen-activated protein kinase 4 (Homo sapiens), sequence (P31152 whole entry): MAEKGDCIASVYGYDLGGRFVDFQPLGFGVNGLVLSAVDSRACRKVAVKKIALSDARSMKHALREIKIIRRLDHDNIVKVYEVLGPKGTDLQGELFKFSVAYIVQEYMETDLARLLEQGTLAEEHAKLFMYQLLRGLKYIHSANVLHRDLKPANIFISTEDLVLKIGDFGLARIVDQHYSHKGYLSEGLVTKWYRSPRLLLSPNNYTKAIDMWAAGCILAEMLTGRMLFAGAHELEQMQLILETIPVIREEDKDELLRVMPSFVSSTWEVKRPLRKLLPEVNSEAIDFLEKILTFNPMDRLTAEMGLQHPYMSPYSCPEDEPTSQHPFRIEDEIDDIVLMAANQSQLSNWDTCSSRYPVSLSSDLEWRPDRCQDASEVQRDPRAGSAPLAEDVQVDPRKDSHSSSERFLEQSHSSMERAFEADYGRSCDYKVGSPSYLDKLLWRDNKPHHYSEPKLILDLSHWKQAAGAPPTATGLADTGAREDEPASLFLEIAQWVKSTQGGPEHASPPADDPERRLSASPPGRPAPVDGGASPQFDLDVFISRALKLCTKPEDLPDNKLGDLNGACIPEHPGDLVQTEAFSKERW

[16] = molecular target: Cyclin-dependent kinase 17 (Homo sapiens) (UniProt Q00537); conditions: Compound concentration 1000.0 nM

Activin receptor type-2B (Homo sapiens), sequence (Q13705 whole entry): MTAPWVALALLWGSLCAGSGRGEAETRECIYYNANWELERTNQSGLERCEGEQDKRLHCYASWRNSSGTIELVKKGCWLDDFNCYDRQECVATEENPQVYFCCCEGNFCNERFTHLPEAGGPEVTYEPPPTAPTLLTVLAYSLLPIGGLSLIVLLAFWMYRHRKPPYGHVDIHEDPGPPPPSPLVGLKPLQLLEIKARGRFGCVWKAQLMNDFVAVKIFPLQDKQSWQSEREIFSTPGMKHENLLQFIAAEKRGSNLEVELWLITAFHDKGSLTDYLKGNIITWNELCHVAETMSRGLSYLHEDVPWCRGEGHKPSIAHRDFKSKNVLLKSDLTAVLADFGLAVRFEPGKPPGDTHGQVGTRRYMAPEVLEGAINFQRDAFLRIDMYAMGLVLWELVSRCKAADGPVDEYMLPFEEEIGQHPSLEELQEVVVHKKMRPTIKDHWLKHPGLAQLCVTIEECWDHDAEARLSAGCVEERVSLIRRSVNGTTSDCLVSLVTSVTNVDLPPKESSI

CN(C)C(=O)Cn1cc(-c2nc(C3(c4ccc(-c5cnc(N)nc5)cc4)CC3)no2)cn1 [BI 0153]
inactive: residual activity [1] 100% | residual activity [2] 83% | residual activity [3] 96% | inhibition [4] -3.06% | residual activity [5] 92% | residual activity [6] 100% | residual activity [7] 100% | residual activity [8] 100% | residual activity [9] 97% | residual activity [10] 97% | residual activity [11] 100% | residual activity [12] 99% | residual activity [13] 100% | residual activity [14] 84% | residual activity [15] 100% | residual activity [16] 100%

CN(C)C(=O)Cn1cc(-c2nc([C@@](C)(c3ccc(-c4cnc(N)nc4)cc3)C3CC3)no2)cn1 [BI 665915]
inactive: residual activity [1] 100% | residual activity [2] 86% | residual activity [3] 81% | inhibition [4] -5.95% | residual activity [5] 94% | residual activity [6] 100% | residual activity [7] 81% | residual activity [8] 93% | residual activity [9] 68% | residual activity [10] 93% | residual activity [11] 100% | residual activity [12] 71% | residual activity [13] 75% | residual activity [14] 100% | residual activity [15] 88% | residual activity [16] 96%

Source: ChEMBL document CHEMBL4507276 (2021)
